{"source": "patent US9232796B2", "about": "“Herbicidal compositions comprising 4-amino-3-chloro-5-fluoro-6-(4-chloro-2-fluoro-3-methoxyphenyl) pyridine-2-carboxylic acid or a derivative thereof and acetyl-CoA carboxylase (ACCase) inhibitors” (DOW AGROSCIENCES LLC, priority 2012, dated 2016)", "key": {"IPOHE [1]": {"test_system": "IPOHE", "experiment": "Example V (second) postemergence foliar-applied ternary mixtures, greenhouse, direct seeded rice weeds", "assay_type": "in vivo, Ipomoea hederacea Jacq.", "details": "6 gae/ha", "description": "(§1) The treated plants and control plants were placed in a greenhouse as described above and watered by sub-irrigation to prevent wash-off of the test compounds. After approximately 3 weeks, the condition of the test plants as compared with that of the untreated plants was determined visually and scored on a scale of 0 to 100 percent where 0 corresponds to no injury or growth inhibition and 100 corresponds to complete kill.\n(§2) Colby's equation was used to determine the herbicidal effects expected from the mixtures (Colby, S. R. 1967. Calculation of the synergistic and antagonistic response of herbicide combinations. Weeds 15:20-22.).\n(§3) The following equation was used to calculate the expected activity of mixtures containing three active ingredients, A, B, and C: Expected=A+B+C−((A×B+A×C+B×C)/100)+(A×B×C/10000)"}, "CYPES": {"test_system": "CYPES", "experiment": "Example V (second) postemergence foliar-applied ternary mixtures, greenhouse, direct seeded rice weeds", "assay_type": "in vivo, Cyperus esculentus L.", "description": "as §1, §2, §3"}, "LEFCH": {"test_system": "LEFCH", "experiment": "Example V (second) postemergence foliar-applied ternary mixtures, greenhouse, direct seeded rice weeds", "assay_type": "in vivo, Leptochloa chinensis (L.) Nees", "description": "as §1, §2, §3"}, "KCHSC": {"test_system": "KCHSC", "experiment": "Example IV postemergence foliar-applied, greenhouse, cereal crops weeds", "assay_type": "in vivo, Kochia scoparia (L.) Schrad.", "description": "(§4) Seeds of the desired test plant species were planted in Sun Gro MetroMix® 306 planting mixture, which typically has a pH of 6.0 to 6.8 and an organic matter content of about 30 percent, in plastic pots with a surface area of 103.2 square centimeters (cm^2). […] The plants were grown for 7-36 days in a greenhouse with an approximate 14 hour photoperiod which was maintained at about 18° C. during the day and about 17° C. during the night. Nutrients and water were added on a regular basis and supplemental lighting was provided with overhead metal halide 1000-Watt lamps as necessary. The plants were employed for testing when they reached the second or third true leaf stage.\n(§5) Treatments consisted of the benzyl ester of 4-amino-3-chloro-5-fluoro-6-(4-chloro-2-fluoro-3-methoxy-phenyl)pyridine-2-carboxylic acid (Compound A), formulated as an SC, a second cereal herbicide alone and then both in combination.\n(§6) Other herbicidal components were applied on an active ingredient basis and included acetyl-CoA carboxylase (ACCase)-inhibiting herbicides clodinafop-propargyl, fenoxaprop-P-ethyl, pinoxaden and tralkoxydim.\n(§7) Measured aliquots of benzyl ester of 4-amino-3-chloro-5-fluoro-6-(4-chloro-2-fluoro-3-methoxy-phenyl)pyridine-2-carboxylic acid (Compound A) were placed in 25 milliliter (mL) glass vials and diluted in a volume of 1.25% (v/v) Agri-Dex® crop oil concentrate to obtain stock solutions. Compound requirements are based upon a 12 mL application volume at a rate of 187 liters per hectare (L/ha). […] Formulated compounds were applied to the plant material with an overhead Mandel track sprayer equipped with an 8002E nozzle calibrated to deliver 187 L/ha over an application area of 0.503 square meters (m^2) at a spray height of 18 inches (46 cm) above average plant canopy. Control plants were sprayed in the same manner with the solvent blank.\nas §1, with “20-22 days,” for “approximately 3 weeks,”, “control” for “untreated”, “injury” for “injury or growth inhibition”\nas §2\n(§8) The following equation was used to calculate the expected activity of mixtures containing two active ingredients, A and B: Expected=A+B−(A×B/100)"}, "ECHCO": {"test_system": "ECHCO", "experiment": "Example I postemergence foliar-applied, greenhouse, direct seeded rice weeds", "assay_type": "in vivo, Echinochloa colona (L.) Link", "excerpt": "(§9) Seeds or nutlets of the desired test plant species were planted in a soil matrix prepared by mixing a loam or sandy loam soil (e.g., 28.6 percent silt, 18.8 percent clay, and 52.6 percent sand, with a pH of about 5.8 and an organic matter content of about 1.8 percent) and calcareous grit in an 80 to 20 ratio. The soil matrix was contained in plastic pots with a volume of 1 quart and a surface area of 83.6 square centimeters (cm^2). When required to ensure good germination and healthy plants, a fungicide treatment and/or other chemical or physical treatment was applied. The plants were grown for 8-22 days in a greenhouse with an approximate 14 hr. photoperiod which was maintained at about 29° C. during the day and 26° C. during the night. Nutrients (Peters Excel® 15-5-15 5-Ca 2-Mg and iron chelate) were applied in the irrigation solution as needed and water was added on a regular basis. Supplemental lighting was provided with overhead metal halide 1000-Watt lamps as necessary. The plants were employed for testing when they reached the first through fourth true leaf stage.\n(§10) Treatments consisted of the acid or esters of 4-amino-3-chloro-5-fluoro-6-(4-chloro-2-fluoro-3-methoxy-phenyl)pyridine-2-carboxylic acid (Compound A), each formulated as an SC (suspension concentrate), and various herbicidal components alone and in combination.\n(§11) Other herbicidal components were applied on an acid equivalent (ae) or active ingredient (ai) basis and included acetyl coA carboxylase (ACCase)-inhibiting herbicides (cyclohexanedione and aryloxyphenoxypropionate chemical classes) cyhalofop-butyl formulated as Clincher® SF (285 gr ai/L EC), diclofop-methyl formulated as Hoelon® 3EC, fenoxaprop-p-ethyl+isoxadifen-ethyl formulated as RiceStar® HT (0.58 lb./gal EC), fenoxaprop-p-ethyl+mefenpyr diethyl formulated as Puma® IEC, metamifop formulated as Metamifop EC, haloxyfop-methyl formulated as Gallant Super®, fluazifop-p-butyl formulated as Fusilade® DX, quizalofop-p-ethyl formulated as Assure® II, profoxydim formulated as Aura® 20EC, clethodim applied as Intensity®, sethoxydim formulated as Poast®, and tralkoxydim formulated as Achieve®.\n(§12) Treatment requirements were calculated based upon the rates being tested, the concentration of active ingredient or acid equivalent in the formulation, and a 12 mL application volume at a rate of 187 L/ha.\n(§13) For treatments comprised of formulated compounds, measured amounts of compounds were placed individually in 25 mL glass vials and diluted in a volume of 1.25% (v/v) Agri-Dex® crop oil concentrated to obtain 12× stock solutions. […] Application solutions were prepared by adding an appropriate amount of each stock solution (e.g., 1 mL) and diluted to the appropriate final concentrations with the addition of 10 mL of an aqueous mixture of 1.25% (v/v) crop oil concentrate so that the final spray solutions contained 1.25+/−0.05% (v/v) crop oil concentrate.\n(§14) All stock solutions and applications solutions were visually inspected for compound compatibility prior to application. Spray solutions were applied to the plant material with an overhead Mandel track sprayer equipped with a 8002E nozzles calibrated to deliver 187 L/ha over an application area of 0.503 m^2 at a spray height of 18 to 20 inches (46 to 50 cm) above average plant canopy height. Control plants were sprayed in the same manner with the solvent blank.\nas §1, with “kill. […]” for “kill.”"}, "IPOHE [2]": {"test_system": "IPOHE", "experiment": "Example I postemergence foliar-applied, greenhouse, direct seeded rice weeds", "assay_type": "in vivo, Ipomoea hederacea Jacq.", "excerpt": "as §9, §10, §11, §12, §13, §14\nas §1, with “kill. […]” for “kill.”"}, "PHAMI": {"test_system": "PHAMI", "experiment": "Example IV postemergence foliar-applied, greenhouse, cereal crops weeds", "assay_type": "in vivo, Phalaris minor Retz.", "description": "as §4, §5, §6, §7\nas §1, with “20-22 days,” for “approximately 3 weeks,”, “control” for “untreated”, “injury” for “injury or growth inhibition”\nas §2, §8"}, "SCPJU": {"test_system": "SCPJU", "experiment": "Example I postemergence foliar-applied, greenhouse, direct seeded rice weeds", "assay_type": "in vivo, Schoenoplectus juncoides (Roxb.) Palla", "excerpt": "as §9, §10, §11, §12, §13, §14\nas §1, with “kill. […]” for “kill.”"}, "ECHCG": {"test_system": "ECHCG", "experiment": "Example V (second) postemergence foliar-applied ternary mixtures, greenhouse, direct seeded rice weeds", "assay_type": "in vivo, Echinochloa crus-galli (L.) Beauv.", "details": "280 gai/ha", "excerpt": "Seeds or nutlets of the desired test plant species were planted in a soil matrix prepared by mixing a sandy loam or loam soil (e.g., 32 percent silt, 23 percent clay, and 45 percent sand, with a pH of about 6.5 and an organic matter content of about 1.9 percent) and calcareous grit in an 80 to 20 ratio. The soil matrix was contained in plastic pots with a volume of 1 quart and a surface area of 83.6 square centimeters (cm^2). When required to ensure good germination and healthy plants, a fungicide treatment and/or other chemical or physical treatment was applied. The plants were grown for 8-22 days in a greenhouse with an approximate 14 hr. photoperiod which was maintained at about 29° C. during the day and 26° C. during the night. Nutrients (Peters Excel® 15-5-15 5-Ca 2-Mg and iron chelate) were applied in the irrigation solution as needed and water was added on a regular basis. Supplemental lighting was provided with overhead metal halide 1000-Watt lamps as necessary. The plants were employed for testing when they reached the first through fourth true leaf stage.\nTreatments consisted of the benzyl ester of 4-amino-3-chloro-5-fluoro-6-(4-chloro-2-fluoro-3-methoxy-phenyl)pyridine-2-carboxylic acid (Compound A), formulated as an SC (suspension concentrate), an ACCase inhibitor, and a third herbicidal component, each applied alone and in ternary combination. Forms of compound A were applied on an acid equivalent basis.\nThe ACCase inhibitor component was applied on an active ingredient basis and included cyhalofop-R-butyl formulated as Clincher® SF, fenoxaprop-p-ethyl formulated as RiceStar® HT, and profoxydim formulated as Aura® 20EC. Other herbicidal components were applied on an active ingredient or acid equivalent basis depending on the compound and included penoxsulam formulated as Grasp® SC, bentazon sodium formulated as Basagran®, triclopyr […] (TEA) salt formulated as Grandstand® R, bispyribac sodium formulated as Regiment® 80WP, imazamox ammonium formulated as Beyond®, benzobicyclon, quinclorac formulated as Facet® 75DF, glyphosate dimethylammonium (DMA) salt formulated as Durango® DMA, glufosinate ammonium formulated as Ignite® 280, fentrazamide formulated as an emulsifiable concentrate (EC), propyrisulfuron formulated as Zeta One®, and indanofan (technical grade material).\nas §12\nas §13, with “concentrate” for “concentrated”, “9” for “10”, “1.25%” for “1.25+/−0.05%”\nAs required, additional water and/or 97:3 v/v acetone/DMSO was added to individual application solutions so that the final acetone and DMSO concentrations of the application solutions being compared were 8.1% and 0.25%, respectively.\nas §14, with “18” for “18 to 20”, “(46” for “(46 to 50”\nThe treated plants and control plants were placed in a greenhouse as described above and watered by sub-irrigation to prevent wash-off of the test compounds. […]"}}, "data": [{"smiles": "COCc1cnc(C2=NC(C)(C(C)C)C(=O)N2)c(C(=O)O)c1", "note": "(stereo not shown) [Imazamox ammonium]", "values": [{"measurement": "Visual Weed Control (%) - 21 DAA IPOHE Obs", "setting": "IPOHE [1]", "value": 65, "unit": "%"}, {"measurement": "Visual Weed Control (%) - 21 DAA CYPES Obs", "setting": "CYPES; 12 gae/ha", "value": 60, "unit": "%"}]}, {"smiles": "CCC1(CC2(c3cccc(Cl)c3)CO2)C(=O)c2ccccc2C1=O", "note": "(stereo not shown) [Indanofan]", "values": [{"measurement": "Visual Weed Control (%) - 22 DAA LEFCH Obs", "setting": "LEFCH; 72.5 gai/ha", "value": 30, "unit": "%"}, {"measurement": "Visual Weed Control (%) - 22 DAA LEFCH Obs", "setting": "LEFCH; 145 gai/ha", "value": 38, "unit": "%"}]}, {"smiles": "CCc1cc(C)cc(CC)c1-c1c(OC(=O)C(C)(C)C)n2n(c1=O)CCOCC2", "note": "[Pinoxaden, 8-(2,6-diethyl-4-methylphenyl)-1,2,4,5-tetrahydro-7-oxo-7H-pyrazolo[1,2-d][1,4,5]oxadiazepin-9-yl 2,2-dimethylpropanoate]", "values": [{"measurement": "Visual Weed Control (%) - 21 DAA KCHSC Obs", "setting": "KCHSC; Pinoxaden 15 gai/ha", "value": 0, "unit": "%"}, {"measurement": "Visual Weed Control (%) - 21 DAA KCHSC Obs", "setting": "KCHSC; Pinoxaden 30 gai/ha", "value": 15, "unit": "%"}, {"measurement": "Visual Weed Control (%) - 21 DAA ECHCO Obs", "setting": "ECHCO; 15 gai/ha", "value": 15, "unit": "%"}, {"measurement": "Visual Weed Control (%) - 21 DAA ECHCO Obs", "setting": "ECHCO; 30 gai/ha", "value": 85, "unit": "%"}, {"measurement": "Visual Weed Control (%) - 21 DAA ECHCO Obs", "setting": "ECHCO; 60 gai/ha", "value": 95, "unit": "%"}, {"measurement": "Visual Weed Control (%) - 21 DAA IPOHE Obs", "setting": "IPOHE [2]; 15 gai/ha", "value": 10, "unit": "%"}, {"measurement": "Visual Weed Control (%) - 21 DAA IPOHE Obs", "setting": "IPOHE [2]; 30 gai/ha", "value": 10, "unit": "%"}, {"measurement": "Visual Weed Control (%) - 21 DAA IPOHE Obs", "setting": "IPOHE [2]; 60 gai/ha", "value": 0, "unit": "%"}, {"measurement": "Visual Weed Control (%) - 21 DAA PHAMI Obs", "setting": "PHAMI; Pinoxaden 15 gai/ha", "value": 78, "unit": "%"}, {"measurement": "Visual Weed Control (%) - 21 DAA PHAMI Obs", "setting": "PHAMI; Pinoxaden 30 gai/ha", "value": 94, "unit": "%"}, {"measurement": "Visual Weed Control (%) - 21 DAA SCPJU Obs", "setting": "SCPJU; 15 gai/ha", "value": 0, "unit": "%"}, {"measurement": "Visual Weed Control (%) - 21 DAA SCPJU Obs", "setting": "SCPJU; 30 gai/ha", "value": 0, "unit": "%"}, {"measurement": "Visual Weed Control (%) - 21 DAA SCPJU Obs", "setting": "SCPJU; 60 gai/ha", "value": 0, "unit": "%"}]}, {"smiles": "O=C(O)c1c(Cl)ccc2cc(Cl)cnc12", "note": "[Quinclorac]", "values": [{"measurement": "Visual Weed Control (%) - 21 DAA ECHCG Obs", "setting": "ECHCG", "value": 10, "unit": "%"}, {"measurement": "Visual Weed Control (%) - 21 DAA CYPES Obs", "setting": "CYPES; 280 gai/ha", "value": 0, "unit": "%"}]}]}
